# Test results published in ChEMBL document CHEMBL5131494, “Phe19 modification of HDM2-p53 PPI inhibitors to alleviate CYP3A4 metabolism/mechanism-based inhibition liability” (Bioorg Med Chem Lett, 2022).
# Biological target: T1, Cytochrome P450 3A4 (Homo sapiens, UniProt P08684)
# Assay: Inhibition of CYP3A4 (unknown origin) using testosterone as substrate in presence of NADPH
# Assay type: ADME
# Conditions: not given
# T1 sequence (P08684 whole entry): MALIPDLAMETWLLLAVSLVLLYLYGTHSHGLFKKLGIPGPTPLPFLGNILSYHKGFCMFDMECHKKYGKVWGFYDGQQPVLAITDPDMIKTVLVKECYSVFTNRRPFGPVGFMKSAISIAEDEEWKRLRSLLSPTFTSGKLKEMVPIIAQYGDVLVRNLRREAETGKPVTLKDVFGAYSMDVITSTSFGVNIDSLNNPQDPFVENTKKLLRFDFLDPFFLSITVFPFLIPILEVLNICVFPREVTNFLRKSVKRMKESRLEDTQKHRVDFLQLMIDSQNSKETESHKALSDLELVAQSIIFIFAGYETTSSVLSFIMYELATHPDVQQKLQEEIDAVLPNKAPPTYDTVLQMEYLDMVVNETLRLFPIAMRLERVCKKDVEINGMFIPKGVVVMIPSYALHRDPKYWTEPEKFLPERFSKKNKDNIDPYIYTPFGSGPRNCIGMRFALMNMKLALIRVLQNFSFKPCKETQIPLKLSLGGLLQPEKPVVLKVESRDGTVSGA
row,Compound,IC50 [µM]
1,CCC[C@H]1N(C(=O)c2cnccc2C(F)(F)F)CCC[C@@]1(Oc1csc(C(F)(F)F)c1)C(=O)N1CCN(c2ccccc2OCCCC(=O)O)CC1,20
2,CCC[C@H]1N(C(=O)c2cnccc2C(F)(F)F)CCC[C@@]1(Oc1csc(C(F)(F)F)c1)C(=O)N1CCN(c2ccccc2OCCO)CC1,6.6
3,C=CCOc1nccc(C(F)(F)F)c1C(=O)N1CCC[C@@](Oc2csc(C(F)(F)F)c2)(C(=O)N2CCN(c3ccccc3OCCO)CC2)[C@H]1CCC,50
4,CCC[C@H]1N(C(=O)c2c(C(F)(F)F)ccc[n+]2[O-])CCC[C@@]1(Oc1csc(C(F)(F)F)c1)C(=O)N1CCN(c2ccccc2OCCO)CC1,50
5,CCC[C@H]1N(C(=O)c2c(C(F)(F)F)ccnc2O)CCC[C@@]1(Oc1csc(C(F)(F)F)c1)C(=O)N1CCN(c2ccccc2OCCCC(=O)O)CC1,50
6,CCC[C@H]1N(C(=O)c2cc(F)ccc2C(F)(F)F)CCC[C@@]1(Oc1csc(C(F)(F)F)c1)C(=O)N1CCN(c2ccccc2OCCO)CC1,50
7,CCC[C@H]1N(C(=O)c2c(C(F)(F)F)ccnc2OCCO)CCC[C@@]1(Oc1csc(C(F)(F)F)c1)C(=O)N1CCN(c2ccccc2OCCO)CC1,50
8,CCC[C@H]1N(C(=O)c2c(C(F)(F)F)ccnc2OCCN(C)C)CCC[C@@]1(Oc1csc(C(F)(F)F)c1)C(=O)N1CCN(c2ccccc2OCCO)CC1,20
9,CCC[C@H]1N(C(=O)c2cnccc2C)CCC[C@@]1(Oc1csc(C(F)(F)F)c1)C(=O)N1CCN(c2ccccc2OCCO)CC1,6.9
10,CCC[C@H]1N(C(=O)c2c(F)cccc2C(F)(F)F)CCC[C@@]1(Oc1csc(C(F)(F)F)c1)C(=O)N1CCN(c2ccccc2OCCO)CC1,50
11,CCC[C@H]1N(C(=O)c2cnccc2C(F)(F)F)CCC[C@@]1(Oc1csc(C(F)(F)F)c1)C(=O)N1CCN(c2ccccc2OC)CC1,10
12,CCC[C@H]1N(C(=O)c2c(C(F)(F)F)ccnc2O)CCC[C@@]1(Oc1csc(C(F)(F)F)c1)C(=O)N1CCN(c2ccccc2OCCO)CC1,30
13,CCC[C@H]1N(C(=O)c2ncccc2C(F)(F)F)CCC[C@@]1(Oc1csc(C(F)(F)F)c1)C(=O)N1CCN(c2ccccc2OCCO)CC1,35.1
14,CCC[C@H]1N(C(=O)c2c(C(F)(F)F)ccnc2O)CCC[C@@]1(Oc1csc(C(F)(F)F)c1)C(=O)N1CCN(c2ccccc2OC)CC1,20
15,CCC[C@H]1N(C(=O)c2c(C(F)(F)F)ccnc2OCC(=O)O)CCC[C@@]1(Oc1csc(C(F)(F)F)c1)C(=O)N1CCN(c2ccccc2OCCO)CC1,20

# Biological target: T1, Cytochrome P450 3A4
# Assay: Inhibition of CYP3A4 (unknown origin) using testosterone as substrate pretreated with NADPH
# Assay type: ADME
# Conditions: not given
row,Compound,IC50 [µM]
1,CCC[C@H]1N(C(=O)c2cnccc2C(F)(F)F)CCC[C@@]1(Oc1csc(C(F)(F)F)c1)C(=O)N1CCN(c2ccccc2OCCCC(=O)O)CC1,0.9
2,CCC[C@H]1N(C(=O)c2cnccc2C(F)(F)F)CCC[C@@]1(Oc1csc(C(F)(F)F)c1)C(=O)N1CCN(c2ccccc2OCCO)CC1,0.3
3,C=CCOc1nccc(C(F)(F)F)c1C(=O)N1CCC[C@@](Oc2csc(C(F)(F)F)c2)(C(=O)N2CCN(c3ccccc3OCCO)CC2)[C@H]1CCC,5.7
4,CCC[C@H]1N(C(=O)c2c(C(F)(F)F)ccc[n+]2[O-])CCC[C@@]1(Oc1csc(C(F)(F)F)c1)C(=O)N1CCN(c2ccccc2OCCO)CC1,1.9
5,CCC[C@H]1N(C(=O)c2c(C(F)(F)F)ccnc2O)CCC[C@@]1(Oc1csc(C(F)(F)F)c1)C(=O)N1CCN(c2ccccc2OCCCC(=O)O)CC1,50
6,CCC[C@H]1N(C(=O)c2cc(F)ccc2C(F)(F)F)CCC[C@@]1(Oc1csc(C(F)(F)F)c1)C(=O)N1CCN(c2ccccc2OCCO)CC1,0.6
7,CCC[C@H]1N(C(=O)c2c(C(F)(F)F)ccnc2OCCO)CCC[C@@]1(Oc1csc(C(F)(F)F)c1)C(=O)N1CCN(c2ccccc2OCCO)CC1,1.5
8,CCC[C@H]1N(C(=O)c2c(C(F)(F)F)ccnc2OCCN(C)C)CCC[C@@]1(Oc1csc(C(F)(F)F)c1)C(=O)N1CCN(c2ccccc2OCCO)CC1,2
9,CCC[C@H]1N(C(=O)c2cnccc2C)CCC[C@@]1(Oc1csc(C(F)(F)F)c1)C(=O)N1CCN(c2ccccc2OCCO)CC1,1.2
10,CCC[C@H]1N(C(=O)c2c(F)cccc2C(F)(F)F)CCC[C@@]1(Oc1csc(C(F)(F)F)c1)C(=O)N1CCN(c2ccccc2OCCO)CC1,0.4
11,CCC[C@H]1N(C(=O)c2cnccc2C(F)(F)F)CCC[C@@]1(Oc1csc(C(F)(F)F)c1)C(=O)N1CCN(c2ccccc2OC)CC1,0.3
12,CCC[C@H]1N(C(=O)c2c(C(F)(F)F)ccnc2O)CCC[C@@]1(Oc1csc(C(F)(F)F)c1)C(=O)N1CCN(c2ccccc2OCCO)CC1,30
13,CCC[C@H]1N(C(=O)c2ncccc2C(F)(F)F)CCC[C@@]1(Oc1csc(C(F)(F)F)c1)C(=O)N1CCN(c2ccccc2OCCO)CC1,0.2
14,CCC[C@H]1N(C(=O)c2c(C(F)(F)F)ccnc2O)CCC[C@@]1(Oc1csc(C(F)(F)F)c1)C(=O)N1CCN(c2ccccc2OC)CC1,9.2
15,CCC[C@H]1N(C(=O)c2c(C(F)(F)F)ccnc2OCC(=O)O)CCC[C@@]1(Oc1csc(C(F)(F)F)c1)C(=O)N1CCN(c2ccccc2OCCO)CC1,4.4

# Biological target: Tumour suppressor p53/oncoprotein Mdm2 (Homo sapiens, UniProt Q00987)
# Sequence (P04637 whole entry): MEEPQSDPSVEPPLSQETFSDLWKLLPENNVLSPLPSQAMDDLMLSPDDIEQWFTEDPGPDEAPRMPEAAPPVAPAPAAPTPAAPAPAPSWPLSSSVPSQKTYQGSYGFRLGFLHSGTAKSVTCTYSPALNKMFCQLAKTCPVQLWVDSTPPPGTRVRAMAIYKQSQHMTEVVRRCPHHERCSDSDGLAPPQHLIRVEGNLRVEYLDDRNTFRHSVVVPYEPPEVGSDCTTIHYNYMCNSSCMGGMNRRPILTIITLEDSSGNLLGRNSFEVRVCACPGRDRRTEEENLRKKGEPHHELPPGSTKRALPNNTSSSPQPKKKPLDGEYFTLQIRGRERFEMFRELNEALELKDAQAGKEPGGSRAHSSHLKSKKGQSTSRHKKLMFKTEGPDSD
# Sequence (Q00987 whole entry): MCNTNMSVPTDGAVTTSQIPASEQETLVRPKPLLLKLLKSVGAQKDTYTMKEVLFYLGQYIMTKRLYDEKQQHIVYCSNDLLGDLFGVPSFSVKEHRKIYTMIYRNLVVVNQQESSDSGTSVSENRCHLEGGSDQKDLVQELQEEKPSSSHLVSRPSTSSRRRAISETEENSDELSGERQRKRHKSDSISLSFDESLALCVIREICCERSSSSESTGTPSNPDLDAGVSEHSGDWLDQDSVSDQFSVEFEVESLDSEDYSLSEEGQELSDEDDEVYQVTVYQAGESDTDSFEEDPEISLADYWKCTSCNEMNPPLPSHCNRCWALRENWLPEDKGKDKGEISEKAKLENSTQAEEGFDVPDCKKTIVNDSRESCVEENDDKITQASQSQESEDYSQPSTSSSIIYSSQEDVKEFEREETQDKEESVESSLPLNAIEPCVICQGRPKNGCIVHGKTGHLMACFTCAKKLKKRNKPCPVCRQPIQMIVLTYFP
# Assay: Inhibition of HDM2-p53 (unknown origin) protein-protein interaction by fluorescence polarization peptide displacement assay
# Conditions: not given
row,Compound,IC50 [µM]
1,CCC[C@H]1N(C(=O)c2cnccc2C(F)(F)F)CCC[C@@]1(Oc1csc(C(F)(F)F)c1)C(=O)N1CCN(c2ccccc2OCCO)CC1,0.015
2,CCC[C@H]1N(C(=O)c2cccnc2)CCC[C@@]1(Oc1csc(C(F)(F)F)c1)C(=O)N1CCN(c2ccccc2OCCO)CC1,1.77
3,CCC[C@H]1N(C(=O)c2ccncc2C(F)(F)F)CCC[C@@]1(Oc1csc(C(F)(F)F)c1)C(=O)N1CCN(c2ccccc2OCCO)CC1,0.066
4,C=CCOc1nccc(C(F)(F)F)c1C(=O)N1CCC[C@@](Oc2csc(C(F)(F)F)c2)(C(=O)N2CCN(c3ccccc3OCCO)CC2)[C@H]1CCC,0.028
5,CCC[C@H]1N(C(=O)c2c(C(F)(F)F)ccc[n+]2[O-])CCC[C@@]1(Oc1csc(C(F)(F)F)c1)C(=O)N1CCN(c2ccccc2OCCO)CC1,0.022
6,CCC[C@H]1N(C(=O)c2c(C(F)(F)F)ccnc2O)CCC[C@@]1(Oc1csc(C(F)(F)F)c1)C(=O)N1CCN(c2ccccc2OCCCC(=O)O)CC1,0.011
7,CCC[C@H]1N(C(=O)c2cc(F)ccc2C(F)(F)F)CCC[C@@]1(Oc1csc(C(F)(F)F)c1)C(=O)N1CCN(c2ccccc2OCCO)CC1,0.034
8,CCC[C@H]1N(C(=O)c2c(C(F)(F)F)ccnc2OCCO)CCC[C@@]1(Oc1csc(C(F)(F)F)c1)C(=O)N1CCN(c2ccccc2OCCO)CC1,0.103
9,CCC[C@H]1N(C(=O)c2c(N)cccc2C(F)(F)F)CCC[C@@]1(Oc1csc(C(F)(F)F)c1)C(=O)N1CCN(c2ccccc2OCCO)CC1,6.8
10,CCC[C@H]1N(C(=O)c2cccnc2C(F)(F)F)CCC[C@@]1(Oc1csc(C(F)(F)F)c1)C(=O)N1CCN(c2ccccc2OCCO)CC1,0.117
11,CCC[C@H]1N(C(=O)c2c(C(F)(F)F)ccnc2OCCN(C)C)CCC[C@@]1(Oc1csc(C(F)(F)F)c1)C(=O)N1CCN(c2ccccc2OCCO)CC1,0.01
12,CCC[C@H]1N(C(=O)c2cnccc2C)CCC[C@@]1(Oc1csc(C(F)(F)F)c1)C(=O)N1CCN(c2ccccc2OCCO)CC1,0.034
13,CCC[C@H]1N(C(=O)c2c(F)cccc2C(F)(F)F)CCC[C@@]1(Oc1csc(C(F)(F)F)c1)C(=O)N1CCN(c2ccccc2OCCO)CC1,0.065
14,CCC[C@H]1N(C(=O)c2cnccc2C(F)(F)F)CCC[C@@]1(Oc1csc(C(F)(F)F)c1)C(=O)N1CCN(c2ccccc2OC)CC1,0.03
15,C=CCNc1nccc(C(F)(F)F)c1C(=O)N1CCC[C@@](Oc2csc(C(F)(F)F)c2)(C(=O)N2CCN(c3ccccc3OCCO)CC2)[C@H]1CCC,1
16,CCC[C@H]1N(C(=O)c2c(C(F)(F)F)ccnc2OCC(=O)NC)CCC[C@@]1(Oc1csc(C(F)(F)F)c1)C(=O)N1CCN(c2ccccc2OCCO)CC1,0.246
17,CCC[C@H]1N(C(=O)c2c(C(F)(F)F)ccnc2O)CCC[C@@]1(Oc1csc(C(F)(F)F)c1)C(=O)N1CCN(c2ccccc2OCCO)CC1,0.044
18,CCC[C@H]1N(C(=O)c2ncccc2C(F)(F)F)CCC[C@@]1(Oc1csc(C(F)(F)F)c1)C(=O)N1CCN(c2ccccc2OCCO)CC1,0.007
19,CCC[C@H]1N(C(=O)c2c(C(F)(F)F)ccnc2O)CCC[C@@]1(Oc1csc(C(F)(F)F)c1)C(=O)N1CCN(c2ccccc2OC)CC1,0.032
20,CCC[C@H]1N(C(=O)c2c(C(F)(F)F)ccnc2OCC(=O)O)CCC[C@@]1(Oc1csc(C(F)(F)F)c1)C(=O)N1CCN(c2ccccc2OCCO)CC1,0.025

# Biological target: CYP3A4 (Homo sapiens, UniProt P08684)
# Sequence (P08684 whole entry): as the sequence (P08684 whole entry) above
# Assay: Ratio of IC50 for CYP3A4 (unknown origin) co-incubated with NADPH to IC50 for CYP3A4 (unknown origin) pretreated with NADPH
# Conditions: read-out: Ratio IC50
row,Compound,IC50 shift
1,CCC[C@H]1N(C(=O)c2cnccc2C(F)(F)F)CCC[C@@]1(Oc1csc(C(F)(F)F)c1)C(=O)N1CCN(c2ccccc2OCCCC(=O)O)CC1,23
2,C=CCOc1nccc(C(F)(F)F)c1C(=O)N1CCC[C@@](Oc2csc(C(F)(F)F)c2)(C(=O)N2CCN(c3ccccc3OCCO)CC2)[C@H]1CCC,9
3,CCC[C@H]1N(C(=O)c2c(C(F)(F)F)ccc[n+]2[O-])CCC[C@@]1(Oc1csc(C(F)(F)F)c1)C(=O)N1CCN(c2ccccc2OCCO)CC1,26
4,CCC[C@H]1N(C(=O)c2c(C(F)(F)F)ccnc2O)CCC[C@@]1(Oc1csc(C(F)(F)F)c1)C(=O)N1CCN(c2ccccc2OCCCC(=O)O)CC1,1
5,CCC[C@H]1N(C(=O)c2cc(F)ccc2C(F)(F)F)CCC[C@@]1(Oc1csc(C(F)(F)F)c1)C(=O)N1CCN(c2ccccc2OCCO)CC1,90
6,CCC[C@H]1N(C(=O)c2c(C(F)(F)F)ccnc2OCCO)CCC[C@@]1(Oc1csc(C(F)(F)F)c1)C(=O)N1CCN(c2ccccc2OCCO)CC1,33
7,CCC[C@H]1N(C(=O)c2c(C(F)(F)F)ccnc2OCCN(C)C)CCC[C@@]1(Oc1csc(C(F)(F)F)c1)C(=O)N1CCN(c2ccccc2OCCO)CC1,10
8,CCC[C@H]1N(C(=O)c2cnccc2C)CCC[C@@]1(Oc1csc(C(F)(F)F)c1)C(=O)N1CCN(c2ccccc2OCCO)CC1,6
9,CCC[C@H]1N(C(=O)c2c(F)cccc2C(F)(F)F)CCC[C@@]1(Oc1csc(C(F)(F)F)c1)C(=O)N1CCN(c2ccccc2OCCO)CC1,126
10,CCC[C@H]1N(C(=O)c2cnccc2C(F)(F)F)CCC[C@@]1(Oc1csc(C(F)(F)F)c1)C(=O)N1CCN(c2ccccc2OC)CC1,33
11,CCC[C@H]1N(C(=O)c2c(C(F)(F)F)ccnc2O)CCC[C@@]1(Oc1csc(C(F)(F)F)c1)C(=O)N1CCN(c2ccccc2OCCO)CC1,1
12,CCC[C@H]1N(C(=O)c2ncccc2C(F)(F)F)CCC[C@@]1(Oc1csc(C(F)(F)F)c1)C(=O)N1CCN(c2ccccc2OCCO)CC1,160
13,CCC[C@H]1N(C(=O)c2c(C(F)(F)F)ccnc2O)CCC[C@@]1(Oc1csc(C(F)(F)F)c1)C(=O)N1CCN(c2ccccc2OC)CC1,2
14,CCC[C@H]1N(C(=O)c2c(C(F)(F)F)ccnc2OCC(=O)O)CCC[C@@]1(Oc1csc(C(F)(F)F)c1)C(=O)N1CCN(c2ccccc2OCCO)CC1,5
